According to patent US20040208859A1, “Bile acid absorbent/adsorbent” (priority 2001, published 2004):

What was measured:
Type in all cases: cell-based
[1] = system: Lactobacillus salivarius ssp. salicinius strain JCM1044; experiment: activity of cholic acid uptake by Lactobacillus salivarius ssp. salicinius strain JCM1044 in the presence of an oligosaccharide; conditions: 14C-labeled cholic acid; oligosaccharide added at 15 minutes after reaction start; control without oligosaccharide unchanged
Experimental: (§1) Lactic acid bacteria were cultured in a commercially available MRS medium overnight. The composition of the medium was as follows:
(§2) The harvested cells were washed with a buffer (pH 7.0) of 50 mM potassium phosphate containing 1 mM magnesium sulfate, and then the washed cells were re-suspended in a buffer comprising the same composition. The resulting cell suspension was allowed to stand for 30 minutes to make the cell membrane of the cells the state of deactivation. Then, the cells were harvested by centrifuging the suspension and washed with a buffer (pH 7.0) of 50 mM potassium phosphate containing 1 mM magnesium sulfate. […]
(§3) To 96 μl of the cell suspension prepared as above, 2 μl of 6 mM cholic acid solution (cholic acid (chenodeoxycholic acid) labeled with ^14C, 16 mCi/mmol) was added, and after allowing the resulting suspension to stand for 15 minutes, 0.1 μl of 0.33 M oligosaccharide solution was added thereto, and the measurement of the activity of bile acid uptake was started. After a predetermined time, the reaction was stopped by adding 3 ml of a buffer of 100 mM potassium phosphate containing 100 mM […], and then the reaction solution was filtered through a cellulose acetate membrane (pore size: 0.45 μm), and the radioactivity left on the membrane was measured by a scintillation counter. […]

[2] = system: Bifidobacterium breve strain JCM1192; experiment: activity of cholic acid uptake by Bifidobacterium breve strain JCM1192 in the presence of an oligosaccharide; conditions: 14C-labeled cholic acid; oligosaccharide added at 15 minutes after reaction start; control without oligosaccharide unchanged
Experimental: as §1, §2, §3

[3] = system: Bifidobacterium breve strain JCM1192; experiment: activity of chenodeoxycholic acid uptake by Bifidobacterium breve strain JCM1192 in the presence of an oligosaccharide; conditions: for chenodeoxycholic acid concentration in the cells relative to that of the outside of the cells: 14C-labeled chenodeoxycholic acid, oligosaccharide added at 15 minutes after reaction start, maximum rise
Experimental: as §1
The harvested cells were washed with a buffer (pH 7.0) of 50 mM potassium phosphate containing 1 mM magnesium sulfate, and then the washed cells were re-suspended in a buffer comprising the same composition. The resulting cell suspension was allowed to stand for 30 minutes to make the cell membrane of the cells the state of deactivation. Then, the cells were harvested by centrifuging the suspension and washed with a buffer (pH 7.0) of 50 mM potassium phosphate containing 1 mM magnesium sulfate. Thereafter, the washed cells were re-suspended in a buffer comprising the same composition, and the cell suspension was adjusted so as to have the turbidity of 10.
To 96 μl of the cell suspension prepared as above, 2 μl of 6 mM cholic acid solution (cholic acid (chenodeoxycholic acid) labeled with ^14C, 16 mCi/mmol) was added, and after allowing the resulting suspension to stand for 15 minutes, 0.1 μl of 0.33 M oligosaccharide solution was added thereto, and the measurement of the activity of bile acid uptake was started. After a predetermined time, the reaction was stopped by adding 3 ml of a buffer of 100 mM potassium phosphate containing 100 mM […], and then the reaction solution was filtered through a cellulose acetate membrane (pore size: 0.45 μm), and the radioactivity left on the membrane was measured by a scintillation counter. In addition, as a control, the radioactivity of a sample adding no oligosaccharide was measured similarly.

[4] = system: Bifidobacterium infantis strain JCM1222; experiment: cholic acid uptake by Bifidobacterium infantis strain JCM1222 in a nystose added-cell suspension
Experimental: as §1, §2, §3

Row | Structure (SMILES) | cholic acid concentration in the cells relative to that of the outside of the cells [1] | cholic acid concentration in the cells relative to that of the outside of the cells [2] | chenodeoxycholic acid concentration in the cells relative to that of the outside of the cells [3] | chenodeoxycholic acid concentration in the cells relative to outside at equilibrium after passive elimination ([3]; after oligosaccharide almost consumed (after 30 minutes), concentration came to equilibrium) | cholic acid incorporation into the cells [4]
1 | OC[C@H]1O[C@@](CO)(OC[C@@]2(O[C@H]3O[C@H](CO)[C@@H](O)[C@H](O)[C@H]3O)O[C@H](CO)[C@@H](O)[C@@H]2O)[C@@H](O)[C@@H]1O [1-kestose] | about 13 times | about 24 times | about 15 times | about 2 times | –
2 | OC[C@H]1O[C@@](CO)(OC[C@@]2(OC[C@@]3(O[C@H]4O[C@H](CO)[C@@H](O)[C@H](O)[C@H]4O)O[C@H](CO)[C@@H](O)[C@@H]3O)O[C@H](CO)[C@@H](O)[C@@H]2O)[C@@H](O)[C@@H]1O [nystose] | – | – | – | – | cholic acid was incorporated into the cells
3 | OC[C@H]1O[C@H](OC[C@H]2O[C@H](O[C@]3(CO)O[C@H](CO)[C@@H](O)[C@@H]3O)[C@H](O)[C@@H](O)[C@@H]2O)[C@H](O)[C@@H](O)[C@H]1O [raffinose] | about 8 times | about 30 times | about 6 times | – | –
